Assay [1] deals with Rats. The experiment in a line: Vogel test. The settings on record: i.c.v., g-CD. The assay is classed as in vivo. The text has this: The Vogel test is based on the development of a conflict between a highly motivated behavior and an aversion. For this test, the strong motivation is thirst. The animal is water deprived for 12-16 hrs to produce the motivation to drink. During the training period the animals are exposed to the testing environment so they become accustomed to the drinking spout and minimize the fear of a novel environment. Following training, the animals are allowed access to water for 2 hrs. During this time, the animals will drink and eat their normal amount of water and food, compensating for the deprivation time. However, this schedule still produces a strong motivation to drink during the testing period.
Having been deprived of water for twelve to sixteen hours, an animal is placed in a test cage where it is allowed to drink freely for five minutes. This period is used to habituate the animal to the environment and the drinking spout. Following the training period, animals have access to water and food in their home cage for 2 hrs. Food is available at all times. Twenty-four hours later, drug is administered to the animal intracecebroventricularly.
After an indicated delay started from the time of injection the animal is again placed in the test cage for ten minutes. A computer counts each time the animal licks, and after every twentieth lick administers a mild electric stimulus across the tongue and/or feet. The electrical stimulus consists of a 0.6 mA current with a duration of 100 msec. This procedure produces a state of conflict for the animal that is reduced by the administration of clinically used anxiolytic agents (i.e., Valium). For dose-response curves, separate groups of animals are injected with increasing doses of test drug and are tested at a predetermined time.
Table 10. Anxiolytic Activity in Vogel Test in Rats

Assay [2] has as its target T1, Hippocampal Mineralocorticoid Receptors (Rattus norvegicus, UniProt P22199).
T1 construct: To isolate the mineralocorticoid receptor, brain cytosol fractions were prepared; from tissue; host or cells: rat brain (hippocampal) cytosol
T1 sequence (P22199 1-981): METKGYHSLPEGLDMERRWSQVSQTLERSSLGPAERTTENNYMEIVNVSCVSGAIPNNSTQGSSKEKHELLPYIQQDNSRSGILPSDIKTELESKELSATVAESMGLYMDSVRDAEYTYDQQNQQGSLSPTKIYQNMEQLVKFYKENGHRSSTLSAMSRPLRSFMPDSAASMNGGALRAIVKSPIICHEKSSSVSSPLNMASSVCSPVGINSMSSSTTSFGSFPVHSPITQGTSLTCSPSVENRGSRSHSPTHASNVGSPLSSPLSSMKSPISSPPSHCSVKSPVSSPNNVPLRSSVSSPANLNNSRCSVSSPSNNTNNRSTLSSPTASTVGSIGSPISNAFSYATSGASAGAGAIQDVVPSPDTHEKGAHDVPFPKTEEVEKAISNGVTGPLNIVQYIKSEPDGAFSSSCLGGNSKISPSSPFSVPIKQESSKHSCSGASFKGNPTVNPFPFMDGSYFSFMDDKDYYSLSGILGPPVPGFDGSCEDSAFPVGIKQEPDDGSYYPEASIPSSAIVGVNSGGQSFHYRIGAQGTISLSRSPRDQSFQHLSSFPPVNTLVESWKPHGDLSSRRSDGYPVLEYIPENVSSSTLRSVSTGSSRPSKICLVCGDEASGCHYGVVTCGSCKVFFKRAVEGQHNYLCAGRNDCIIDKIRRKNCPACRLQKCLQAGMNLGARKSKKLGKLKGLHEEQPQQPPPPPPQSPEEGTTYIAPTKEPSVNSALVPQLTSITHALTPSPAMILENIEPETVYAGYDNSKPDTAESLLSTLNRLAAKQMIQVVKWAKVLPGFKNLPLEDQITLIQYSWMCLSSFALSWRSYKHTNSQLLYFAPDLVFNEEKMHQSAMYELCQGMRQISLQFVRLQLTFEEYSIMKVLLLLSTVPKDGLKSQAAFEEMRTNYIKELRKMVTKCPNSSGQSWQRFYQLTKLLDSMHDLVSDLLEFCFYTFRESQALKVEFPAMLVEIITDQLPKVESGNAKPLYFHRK
The experiment in a line: Inhibition of 3H-aldosterone binding, brain cytosol. The arrangement: species or system rats. The settings on record: competitor 10^-6M; 3 nM 3H-aldosterone, RU28362 0.5 µM. The method, then: Various hormonal activities of representative neuroactive steroids were further studied through testing their potential estrogenic, mineralocorticoid and glucocorticoid activities. These activities were analyzed by monitoring the ability of the compounds to inhibit binding of the steroid hormones to their respective hormone receptors.
In Table 3, rats were adrenalectomized 3 days prior to sacrifice. […] Table 2. Inhibition of 3H-Progesterone Binding to the Bovine Uteral Progesterone Receptors
Table 3. Inhibition of 3H-Aldosterone Binding to Hippocampal Mineralocorticoid Receptors

Assay [3] deals with GR complex. The experiment in a line: [35S]TBPS binding assay (inhibition of [35S]TBPS binding, cerebral cortex P2 homogenate). The arrangement: species or system rat. The settings on record: for modulation of [35S]TBPS binding, in words: even at very high concentrations (Figure 6); for IC50: 2 nM [35S]TBPS, rat cerebral cortex P2 homogenate; for IMAX: maximum inhibition of [35S]TBPS binding. In a few lines:
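Rat (male Sprague-Dawley) cortical P2 homogenate (0.5 mg protein) in 50 mM Na/K phosphate pH 7.4, 200 mM NaCl, incubated with 2 nM [35S]TBPS plus steroid test compounds (DMSO) in presence of GABA plus (+)bicuculline, 25°C, 90 min. Filtration, scintillation counting; nonspecific binding defined with […].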

For assay [4], the system named is Bovine Uteral Progesterone Receptors. Nature of the assay: Inhibition of 3H-progesterone binding, uterus cytosol. The settings on record: competitor 10^-6M; 3H-progesterone 0.15 nM. As for the experimental part: The data presented were obtained by performing assays in accordance with the procedures described in et al. 1988 previously to determine the effect of progesterone metabolites and their derivatives and the progestin R5020 on the binding of [^3H]R5020 to the progesterone receptor in rat uterus (Gee et al. 1988).
^3H-progesterone (0.15 nM) was incubated with the rat uterus cytosol in the presence of the test compounds. The specific binding were determined after incubation and compared to the control incubation without the compounds. The data are expressed as percent inhibition of binding.
In Table 3, rats were adrenalectomized 3 days prior to sacrifice. To isolate the mineralocorticoid receptor, brain cytosol fractions were prepared as describe in Gee, et al. 1988. The drugs were incubated with 3 nM of ^3H-aldosterone (the specific ligand for the mineralocorticoid receptor) in the presence of the selective type II agonist RU28362 (0.5 µM) which blocks ^3H-aldosterone binding to the type II (glucocorticoid) receptors. Table 2. Inhibition of 3H-Progesterone Binding to the Bovine Uteral Progesterone Receptors

In assay [5] the test system is metrazol induced convulsions. The experiment in a line: animal or person. The format is in vivo, mice. The note with it: Mus musculus, 10 min; IP, 10 mg/kg, 10 minutes prior to metrazol (85 mg/kg); read-out: % Protected.
Assay [6] concerns N.I.H. Swiss-Webster mice. The experiment in a line: Elevated plus-maze. The format is in vivo. The settings on record: Mus musculus, ip, read-out: % Control. The text has this:
The theoretical basis for the elevated plus-maze test is similar to that of the light/dark transition test. […] The apparatus consists of two open-arms and two enclosed-arms. The elevated plus-maze test allows for two measures of anxiety, the number of entries into the open-arms and the time spent on the open-arms, both expressed as a percentage of the total number of entries and time spent in/on both the open-arms and enclosed-arms.
Male N.LH. Swiss-Webster mice (Harlan, Indianapolis, IN) weighing 15-20 g were housed four per cage in polyethylene cages with sawdust bedding. The colony mom was environmentally controlled (22°C) with a 12^- hr light/dark cycle (0600-1800 hr). Food and water were available ad libitum, except during testing. The experiments were run from 0700-1500 hr and groups were counterbalance for time of day effects. Mice were only administered drug or vehicle once.
The apparatus included two open arms perpendicular to two enclosed arms elevated 50 cm from the floor. Each arm was 50 cm long and the walls of the enclosed arms were 40 cm tall. The maze was made completely of black plexiglass. Incandescent 200 W light bulbs were above each of the open arms to produce a strong contrast between the open arms and the enclosed arms.
Ten minutes after an injection, the N.I.H. Swiss-Webster mice were placed in the center of the plus-maze facing an open arm. During the 5 min test period, the number of entries onto the open arms and the enclosed arms, and the time spent in the open arms and enclosed arms were measured. All four paws had to be within an arm for the dependent variable to be measured. Therefore, the time spent in the center of the maze is not counted, so the total time spent in the open arms and the enclosed arms may not equal 5 min.

From EP1038880B1, “Androstanes and pregnanes for allosteric modulation of GABA receptor” (priority 1994, dated 1995) come the findings set out here.

In general, inhibition refers to how much of the control response was suppressed. A lower inhibition goes with a weak effect. What is called IC50 is the concentration that gives 50% inhibition. A higher IC50 goes with lower potency.

With `CCC[C@H](O)[C@H]1CC[C@H]2[C@@H]3CC[C@H]4C[C@H](O)CC[C@]4(C)[C@H]3CC[C@]12C` [3α,20α-Dihydroxy-21-ethyl-5α-pregnane], the “Vogel (%of control)” value in assay [1] (20 µg/kg) is recorded as 225.8 %of control.

In the case of `C[C@H](O)[C@H]1CC[C@H]2[C@@H]3CC[C@H]4C[C@H](O)CC[C@]4(C)[C@H]3CC[C@]12C` [3α,20α(S)-Dihydroxy-5α-pregnane], the “Vogel (%of control)” value in assay [1] (10 µg/kg) amounted to 193.0 %of control.

`CC(O)C1CCC2C3CCC4CC(O)C(F)CC4(C)C3CCC12C` (stereo not drawn) [2β-Fluoro-3α,20α-dihydroxy-5α-pregnane]: in assay [1] (20 µg/kg), the “Vogel (%of control)” value amounted to 264.9 %of control.

For the compound `C[C@]12CCC(=O)C=C1CC[C@@H]1[C@@H]2[C@@H](O)C[C@]2(C=O)[C@@H](C(=O)CO)CC[C@@H]12` [Aldosterone], at 1 µM the inhibition in assay [2] was 95.5%.

For the compound `CC[C@H](O)[C@H]1CC[C@H]2[C@@H]3CC[C@H]4C[C@H](O)CC[C@]4(C)[C@H]3CC[C@]12C` [3α,20α-Dihydroxy-21-methyl-5α-pregnane], in assay [1] (10 µg/kg), the “Vogel (%of control)” value is 157.9 %of control.

`C[C@H](O)[C@H]1CC[C@H]2[C@@H]3CC[C@H]4C[C@H](O)CC[C@]4(C)[C@H]3CC[C@]12C` [5α-pregnan-3α,20α-diol, reference compound]: in assay [3], the “modulation of [35S]TBPS binding, in words” value is given as “partially modulate”. The compound also registered an inhibition at 1 µM in assay [2] of 0%. The entries for the “Vogel (%of control)” value in assay [1] (10 µg/kg) and in assay [1] (20 µg/kg) were 283.3 %of control and 267.3 %of control, respectively.

Turning to `CCC(=O)[C@@]1(C)CC[C@H]2[C@@H]3CCC4=CC(=O)CCC4=C3CC[C@@]21C` [Example R5020, promegesterone], in assay [4], the “% of Inhibition” value is listed as 100%.

Consider `C[C@H](O)[C@H]1CC[C@H]2[C@@H]3CC[C@@H]4C[C@H](O)CC[C@]4(C)[C@H]3CC[C@]12C` [5β-pregnan-3α,20α-diol], for which the “modulation of [35S]TBPS binding, in words” value in assay [3] is on record as “partially modulate”. Also, testing at 1 µM in assay [2] gave an inhibition of 0%. In assay [4], the “% of Inhibition” value is reported as 0%.

`CC(=O)[C@H]1CC[C@H]2[C@@H]3CC[C@@H]4C[C@@](O)(C#CCn5ccnn5)CC[C@]4(C)[C@H]3CC[C@]12C` [3α-Hydroxy-3β-[3-(1'H-1,2,3-triazol-1'-yl)-1-propynyl]-5β-pregnan-20-one]: in assay [5], the responders at 10 mg/kg was determined as 25%. Further, the response vs control in vivo at 10 mg/kg in assay [6] came out at 116%. In assay [3], the IC50 amounted to 655 nM and the IMAX is on record as 102%.

As for `Cc1cc(C)n(CC(=O)[C@H]2CC[C@H]3[C@@H]4CC[C@@H]5C[C@H](O)CC[C@]5(C)[C@H]4CC[C@]23C)n1` [3α-hydroxy-21-(1H-3,5-dimethylpyrazolyl)-5β-pregnan-20-one], in assay [5], the responders at 10 mg/kg stood at 50%. For the same compound, the response vs control in vivo at 10 mg/kg in assay [6] is 128%. In assay [3], this compound yielded an IC50 of 96 nM and an IMAX of 77%.

Consider `CC(=O)c1ccc(C#C[C@@]2(O)CC[C@@]3(C)[C@H](CC[C@@H]4[C@@H]3CC[C@]3(C)[C@@H](C(=O)CO)CC[C@@H]43)C2)cc1` [3β-(4'-acetylphenylethynyl)-3α,21-dihydroxy-5β-pregnan-20-one], for which the responders at 10 mg/kg in assay [5] was 75%. Further, the response vs control in vivo at 10 mg/kg in assay [6] was found to be 115%. In assay [3], this compound yielded an IC50 of 22 nM and an IMAX of 99%.

In the case of `CC(=O)CCCC#C[C@@]1(O)CC[C@@]2(C)[C@H](CC[C@@H]3[C@@H]2CC[C@]2(C)[C@@H](C(C)=O)CC[C@@H]32)C1` [3α-hydroxy-3β-[6'-oxo-1'-heptynyl]-5β-pregnan-20-one], in assay [5], the responders at 10 mg/kg was found to be 62.5%. The response vs control in vivo at 10 mg/kg in assay [6] was 130%. In assay [3], this compound showed an IC50 of 90 nM and an IMAX of 101%.

As for `CC(C)OC1CC2(C)C(CCC3C2CCC2(C)C(C(C)O)CCC32)CC1O` (stereo not drawn) [3α,20α-Dihydroxy-2β-isopropoxy-5α-pregnane], in assay [1] (10 µg/kg), the “Vogel (%of control)” value worked out at 169.0 %of control.

Take `CC(=O)[C@H]1CC[C@H]2[C@@H]3CC[C@@H]4C[C@@](O)(C#CCCCO)CC[C@]4(C)[C@H]3CC[C@]12C` [3β-(5'-hydroxy-1'-pentynyl)-3α-hydroxy-5β-pregnan-20-one]: the responders at 10 mg/kg in assay [5] came out at 12.5%. For the same compound, the response vs control in vivo at 10 mg/kg in assay [6] was 137%. In assay [3], the IC50 was found to be 58 nM and the IMAX came out at 100%.
